From US10227344B2, “CK2 inhibitors, compositions and methods thereof” (Polaris Pharmaceuticals, Inc., priority 2016, dated 2019)

Columns and labels:
Type in all cases: cell-based
[1] = system: PC3; experiment: Cancer cell panel, cell viability (resazurin): Prostate, PC3; details: 72 hours, labelled drug combined with Example 3
[2] = system: LnCap; experiment: Cancer cell panel, cell viability (resazurin): Prostate, LnCap; details: 72 hours, labelled drug combined with Example 3
Experimental: (§1) Cells were plated in 96-well plates and treated for 72 hours with a serially diluted CK2 inhibitor or anti-cancer drug or their combination. The suspension cell lines were treated right after plating, while the adherent cells were allowed to attach overnight prior to the start of the treatment.
(§2) Cell viability was determined by adding resazurin to cell cultures and measuring fluorescence with a plate reader. Relative cell viability was calculated by dividing the cell viability signal from a test sample by that of a non-treated control. […] Bliss Independence and Highest Single Agent models were used to determine if there is synergy, additivity or antagonism between the CK2 inhibitor and an anti-cancer drug.

[3] = system: SKOV-3; experiment: Cancer cell panel, cell viability (resazurin): Ovarian, SKOV-3; details: SKOV-3 (Ovarian), 72 hours; labelled drug combined with Example 3
[4] = system: A2780; experiment: Cancer cell panel, cell viability (resazurin): Ovarian, A2780; details: 72 hours, labelled drug combined with Example 3
Experimental: as §1, §2

[5] = system: Caov-3; experiment: Cancer cell panel, cell viability (resazurin): Ovarian, Caov-3; details: Caov-3 (Ovarian), 72 hours; labelled drug combined with Example 3
[6] = system: Mia-Paca-2; experiment: Cancer cell panel, cell viability (resazurin): Pancreatic, Mia-Paca-2; details: Mia-Paca-2 (Pancreatic), 72 hours; labelled drug combined with Example 3
Experimental: as §1, §2

[7] = system: Panc-1; experiment: Cancer cell panel, cell viability (resazurin): Pancreatic, Panc-1; details: Panc-1 (Pancreatic), 72 hours; labelled drug combined with Example 3
[8] = system: BxPC3; experiment: Cancer cell panel, cell viability (resazurin): Pancreatic, BxPC3; details: 72 hours, labelled drug combined with Example 3
[9] = system: HCT116; experiment: Cancer cell panel, cell viability (resazurin): Colon, HCT116; details: 72 hours, labelled drug combined with Example 3
Experimental: as §1, §2

[10] = system: Colo205; experiment: Cancer cell panel, cell viability (resazurin): Colon, Colo205; details: 72 hours, labelled drug combined with Example 3
[11] = system: LoVo; experiment: Cancer cell panel, cell viability (resazurin): Colon, LoVo; details: 72 hours, labelled drug combined with Example 3
[12] = system: DLD-1; experiment: Cancer cell panel, cell viability (resazurin): Colon, DLD-1; details: DLD-1 (Colon), 72 hours; labelled drug combined with Example 3
Experimental: as §1, §2

[13] = system: H1299; experiment: Cancer cell panel, cell viability (resazurin): NSCLC, H1299; details: 72 hours, labelled drug combined with Example 3
Experimental: as §1, §2

[14] = system: A549; experiment: Cancer cell panel, cell viability (resazurin): NSCLC, A549; details: 72 hours, labelled drug combined with Example 3
Experimental: as §1, §2

[15] = system: H460; experiment: Cancer cell panel, cell viability (resazurin): NSCLC, H460; details: 72 hours, labelled drug combined with Example 3
Experimental: as §1, §2

[16] = system: H1975; experiment: Cancer cell panel, cell viability (resazurin): NSCLC, H1975; details: 72 hours, labelled drug combined with Example 3
[17] = system: H23; experiment: Cancer cell panel, cell viability (resazurin): NSCLC, H23; details: 72 hours, labelled drug combined with Example 3
Experimental: as §1, §2

[18] = system: H2122; experiment: Cancer cell panel, cell viability (resazurin): NSCLC, H2122; details: 72 hours, labelled drug combined with Example 3
[19] = system: SkBr-3; experiment: Cancer cell panel, cell viability (resazurin): Breast, SkBr-3; details: SkBr-3 (Breast), 72 hours; labelled drug combined with Example 3
Experimental: as §1, §2

[20] = system: MDA-MB-453; experiment: Cancer cell panel, cell viability (resazurin): Breast, MDA-MB-453; details: MDA-MB-453 (Breast), 72 hours; labelled drug combined with Example 3
[21] = system: MDA-MB-231; experiment: Cancer cell panel, cell viability (resazurin): Breast, MDA-MB-231; details: MDA-MB-231 (Breast), 72 hours; labelled drug combined with Example 3
[22] = system: MDA-MB-157; experiment: Cancer cell panel, cell viability (resazurin): Breast, MDA-MB-157; details: MDA-MB-157 (Breast), 72 hours; labelled drug combined with Example 3
[23] = system: BT-20; experiment: Cancer cell panel, cell viability (resazurin): Breast, BT-20; details: BT-20 (Breast), 72 hours; labelled drug combined with Example 3
[24] = system: ZR-75-1; experiment: Cancer cell panel, cell viability (resazurin): Breast, ZR-75-1; details: ZR-75-1 (Breast), 72 hours; labelled drug combined with Example 3
Experimental: as §1, §2

[25] = system: T47D; experiment: Cancer cell panel, cell viability (resazurin): Breast, T47D; details: 72 hours, labelled drug combined with Example 3
Experimental: as §1, §2

[26] = system: 786-O; experiment: Cancer cell panel, cell viability (resazurin): Renal, 786-O; details: 786-O (Renal), 72 hours; labelled drug combined with Example 3
Experimental: as §1, §2

[27] = system: ACHN; experiment: Cancer cell panel, cell viability (resazurin): Renal, ACHN; details: 72 hours, labelled drug combined with Example 3
[28] = system: Caki-1; experiment: Cancer cell panel, cell viability (resazurin): Renal, Caki-1; details: Caki-1 (Renal), 72 hours; labelled drug combined with Example 3
Experimental: as §1, §2

[29] = system: Caki-2; experiment: Cancer cell panel, cell viability (resazurin): Renal, Caki-2; details: Caki-2 (Renal), 72 hours; labelled drug combined with Example 3
Experimental: as §1, §2

[30] = system: A375; experiment: Cancer cell panel, cell viability (resazurin): Melanoma, A375; details: 72 hours, labelled drug combined with Example 3
[31] = system: SK-MEL-3; experiment: Cancer cell panel, cell viability (resazurin): Melanoma, SK-MEL-3; details: SK-MEL-3 (Melanoma), 72 hours; labelled drug combined with Example 3
[32] = system: SK-MEL-24; experiment: Cancer cell panel, cell viability (resazurin): Melanoma, SK-MEL-24; details: SK-MEL-24 (Melanoma), 72 hours; labelled drug combined with Example 3
[33] = system: WM-115; experiment: Cancer cell panel, cell viability (resazurin): Melanoma, WM-115; details: WM-115 (Melanoma), 72 hours; labelled drug combined with Example 3
[34] = system: MeWO; experiment: Cancer cell panel, cell viability (resazurin): Melanoma, MeWO; details: 72 hours, labelled drug combined with Example 3
[35] = system: U266; experiment: Cancer cell panel, cell viability (resazurin): multiple myeloma, U266; details: 72 hours, labelled drug combined with Example 3
[36] = system: U87MG; experiment: Cancer cell panel, cell viability (resazurin): Glioblastoma, U87MG; details: 72 hours, labelled drug combined with Example 3
[37] = system: Raji; experiment: Cancer cell panel, cell viability (resazurin): Burkitt's Lymphoma, Raji; details: 72 hours, labelled drug combined with Example 3
Experimental: as §1, §2

[38] = system: Daudi; experiment: Cancer cell panel, cell viability (resazurin): Burkitt's Lymphoma, Daudi; details: 72 hours, labelled drug combined with Example 3
[39] = system: NAMALWA; experiment: Cancer cell panel, cell viability (resazurin): Burkitt's Lymphoma, NAMALWA; details: 72 hours, labelled drug combined with Example 3
Experimental: as §1, §2

[40] = system: HL60; experiment: Cancer cell panel, cell viability (resazurin): Leukemia, HL60; details: 72 hours, labelled drug combined with Example 3
[41] = system: EOL-1; experiment: Cancer cell panel, cell viability (resazurin): Leukemia, EOL-1; details: EOL-1 (Leukemia), 72 hours; labelled drug combined with Example 3
[42] = system: MOLT4; experiment: Cancer cell panel, cell viability (resazurin): Leukemia, MOLT4; details: 72 hours, labelled drug combined with Example 3

## N.N.[Cl][Pt][Cl] [Cisplatin, cisplatin]
[1]
  synergy, additivity or antagonism of the combination of Example 3 with the anti-cancer drug: + (Additive relative to each agent alone (CI = 0.9-1 by Bliss Independence Model and <0.9 by Highest Single Agent Model))
[2]
  synergy, additivity or antagonism of the combination of Example 3 with the anti-cancer drug: + + (Slight synergy relative to each agent alone (CI = 0.75-0.9 by Bliss Independence Model))
[3]
  synergy, additivity or antagonism of the combination of Example 3 with the anti-cancer drug: + (Additive relative to each agent alone (CI = 0.9-1 by Bliss Independence Model and <0.9 by Highest Single Agent Model))
[4]
  synergy, additivity or antagonism of the combination of Example 3 with the anti-cancer drug: + + + + (Strong synergy relative to each agent alone (CI < 0.4 by Bliss Independence Model))
[5]
  synergy, additivity or antagonism of the combination of Example 3 with the anti-cancer drug: + (Additive relative to each agent alone (CI = 0.9-1 by Bliss Independence Model and <0.9 by Highest Single Agent Model))
[6]
  synergy, additivity or antagonism of the combination of Example 3 with the anti-cancer drug: + (Additive relative to each agent alone (CI = 0.9-1 by Bliss Independence Model and <0.9 by Highest Single Agent Model))
[7]
  synergy, additivity or antagonism of the combination of Example 3 with the anti-cancer drug: + (Additive relative to each agent alone (CI = 0.9-1 by Bliss Independence Model and <0.9 by Highest Single Agent Model))
[8]
  synergy, additivity or antagonism of the combination of Example 3 with the anti-cancer drug: + (Additive relative to each agent alone (CI = 0.9-1 by Bliss Independence Model and <0.9 by Highest Single Agent Model))
[9]
  synergy, additivity or antagonism of the combination of Example 3 with the anti-cancer drug: + (Additive relative to each agent alone (CI = 0.9-1 by Bliss Independence Model and <0.9 by Highest Single Agent Model))
[10]
  synergy, additivity or antagonism of the combination of Example 3 with the anti-cancer drug: + + (Slight synergy relative to each agent alone (CI = 0.75-0.9 by Bliss Independence Model))
[11]
  synergy, additivity or antagonism of the combination of Example 3 with the anti-cancer drug: + + (Slight synergy relative to each agent alone (CI = 0.75-0.9 by Bliss Independence Model))
[12]
  synergy, additivity or antagonism of the combination of Example 3 with the anti-cancer drug: + (Additive relative to each agent alone (CI = 0.9-1 by Bliss Independence Model and <0.9 by Highest Single Agent Model))
[13]
  synergy, additivity or antagonism of the combination of Example 3 with the anti-cancer drug: + (Additive relative to each agent alone (CI = 0.9-1 by Bliss Independence Model and <0.9 by Highest Single Agent Model))
[14]
  synergy, additivity or antagonism of the combination of Example 3 with the anti-cancer drug: + + + + (Strong synergy relative to each agent alone (CI < 0.4 by Bliss Independence Model))
[15]
  synergy, additivity or antagonism of the combination of Example 3 with the anti-cancer drug: + + (Slight synergy relative to each agent alone (CI = 0.75-0.9 by Bliss Independence Model))
[16]
  synergy, additivity or antagonism of the combination of Example 3 with the anti-cancer drug: + (Additive relative to each agent alone (CI = 0.9-1 by Bliss Independence Model and <0.9 by Highest Single Agent Model))
[17]
  synergy, additivity or antagonism of the combination of Example 3 with the anti-cancer drug: + + + (Synergy relative to each agent alone (CI = 0.4-0.74 by Bliss Independence Model))
[18]
  synergy, additivity or antagonism of the combination of Example 3 with the anti-cancer drug: + + (Slight synergy relative to each agent alone (CI = 0.75-0.9 by Bliss Independence Model))
[19]
  synergy, additivity or antagonism of the combination of Example 3 with the anti-cancer drug: + + (Slight synergy relative to each agent alone (CI = 0.75-0.9 by Bliss Independence Model))
[20]
  synergy, additivity or antagonism of the combination of Example 3 with the anti-cancer drug: + + (Slight synergy relative to each agent alone (CI = 0.75-0.9 by Bliss Independence Model))
[21]
  synergy, additivity or antagonism of the combination of Example 3 with the anti-cancer drug: + (Additive relative to each agent alone (CI = 0.9-1 by Bliss Independence Model and <0.9 by Highest Single Agent Model))
[22]
  synergy, additivity or antagonism of the combination of Example 3 with the anti-cancer drug: + + + (Synergy relative to each agent alone (CI = 0.4-0.74 by Bliss Independence Model))
[23]
  synergy, additivity or antagonism of the combination of Example 3 with the anti-cancer drug: + + (Slight synergy relative to each agent alone (CI = 0.75-0.9 by Bliss Independence Model))
[24]
  synergy, additivity or antagonism of the combination of Example 3 with the anti-cancer drug: + (Additive relative to each agent alone (CI = 0.9-1 by Bliss Independence Model and <0.9 by Highest Single Agent Model))
[25]
  synergy, additivity or antagonism of the combination of Example 3 with the anti-cancer drug: + (Additive relative to each agent alone (CI = 0.9-1 by Bliss Independence Model and <0.9 by Highest Single Agent Model))
[26]
  synergy, additivity or antagonism of the combination of Example 3 with the anti-cancer drug: + + (Slight synergy relative to each agent alone (CI = 0.75-0.9 by Bliss Independence Model))
[27]
  synergy, additivity or antagonism of the combination of Example 3 with the anti-cancer drug: + (Additive relative to each agent alone (CI = 0.9-1 by Bliss Independence Model and <0.9 by Highest Single Agent Model))
[28]
  synergy, additivity or antagonism of the combination of Example 3 with the anti-cancer drug: + (Additive relative to each agent alone (CI = 0.9-1 by Bliss Independence Model and <0.9 by Highest Single Agent Model))
[29]
  synergy, additivity or antagonism of the combination of Example 3 with the anti-cancer drug: + (Additive relative to each agent alone (CI = 0.9-1 by Bliss Independence Model and <0.9 by Highest Single Agent Model))
[30]
  synergy, additivity or antagonism of the combination of Example 3 with the anti-cancer drug: + + (Slight synergy relative to each agent alone (CI = 0.75-0.9 by Bliss Independence Model))
[31]
  synergy, additivity or antagonism of the combination of Example 3 with the anti-cancer drug: + (Additive relative to each agent alone (CI = 0.9-1 by Bliss Independence Model and <0.9 by Highest Single Agent Model))
[32]
  synergy, additivity or antagonism of the combination of Example 3 with the anti-cancer drug: + + (Slight synergy relative to each agent alone (CI = 0.75-0.9 by Bliss Independence Model))
[33]
  synergy, additivity or antagonism of the combination of Example 3 with the anti-cancer drug: + + (Slight synergy relative to each agent alone (CI = 0.75-0.9 by Bliss Independence Model))
[34]
  synergy, additivity or antagonism of the combination of Example 3 with the anti-cancer drug: + (Additive relative to each agent alone (CI = 0.9-1 by Bliss Independence Model and <0.9 by Highest Single Agent Model))
[35]
  synergy, additivity or antagonism of the combination of Example 3 with the anti-cancer drug: + (Additive relative to each agent alone (CI = 0.9-1 by Bliss Independence Model and <0.9 by Highest Single Agent Model))
[36]
  synergy, additivity or antagonism of the combination of Example 3 with the anti-cancer drug: + (Additive relative to each agent alone (CI = 0.9-1 by Bliss Independence Model and <0.9 by Highest Single Agent Model))
[37]
  synergy, additivity or antagonism of the combination of Example 3 with the anti-cancer drug: + + (Slight synergy relative to each agent alone (CI = 0.75-0.9 by Bliss Independence Model))
[38]
  synergy, additivity or antagonism of the combination of Example 3 with the anti-cancer drug: + (Additive relative to each agent alone (CI = 0.9-1 by Bliss Independence Model and <0.9 by Highest Single Agent Model))
[39]
  synergy, additivity or antagonism of the combination of Example 3 with the anti-cancer drug: + (Additive relative to each agent alone (CI = 0.9-1 by Bliss Independence Model and <0.9 by Highest Single Agent Model))
[40]
  synergy, additivity or antagonism of the combination of Example 3 with the anti-cancer drug: + (Additive relative to each agent alone (CI = 0.9-1 by Bliss Independence Model and <0.9 by Highest Single Agent Model))
[41]
  synergy, additivity or antagonism of the combination of Example 3 with the anti-cancer drug: + + (Slight synergy relative to each agent alone (CI = 0.75-0.9 by Bliss Independence Model))
[42]
  synergy, additivity or antagonism of the combination of Example 3 with the anti-cancer drug: + + (Slight synergy relative to each agent alone (CI = 0.75-0.9 by Bliss Independence Model))
